Data as given in ChEMBL document CHEMBL5465560, “Selectivity Literature for EUbOPEN Chemogenomic Library” (2024).

Key:
[1] = target: T1, Serine/threonine-protein kinase tousled-like 1 (Homo sapiens) (UniProt Q9UKI8); assay: Selectivity interaction (Kinase panel (KiNativ target engagement assay in Jurkat cells)) EUB0001635a TLK1; assay type: cell-based; settings: at 1 µM
T1 sequence (whole entry): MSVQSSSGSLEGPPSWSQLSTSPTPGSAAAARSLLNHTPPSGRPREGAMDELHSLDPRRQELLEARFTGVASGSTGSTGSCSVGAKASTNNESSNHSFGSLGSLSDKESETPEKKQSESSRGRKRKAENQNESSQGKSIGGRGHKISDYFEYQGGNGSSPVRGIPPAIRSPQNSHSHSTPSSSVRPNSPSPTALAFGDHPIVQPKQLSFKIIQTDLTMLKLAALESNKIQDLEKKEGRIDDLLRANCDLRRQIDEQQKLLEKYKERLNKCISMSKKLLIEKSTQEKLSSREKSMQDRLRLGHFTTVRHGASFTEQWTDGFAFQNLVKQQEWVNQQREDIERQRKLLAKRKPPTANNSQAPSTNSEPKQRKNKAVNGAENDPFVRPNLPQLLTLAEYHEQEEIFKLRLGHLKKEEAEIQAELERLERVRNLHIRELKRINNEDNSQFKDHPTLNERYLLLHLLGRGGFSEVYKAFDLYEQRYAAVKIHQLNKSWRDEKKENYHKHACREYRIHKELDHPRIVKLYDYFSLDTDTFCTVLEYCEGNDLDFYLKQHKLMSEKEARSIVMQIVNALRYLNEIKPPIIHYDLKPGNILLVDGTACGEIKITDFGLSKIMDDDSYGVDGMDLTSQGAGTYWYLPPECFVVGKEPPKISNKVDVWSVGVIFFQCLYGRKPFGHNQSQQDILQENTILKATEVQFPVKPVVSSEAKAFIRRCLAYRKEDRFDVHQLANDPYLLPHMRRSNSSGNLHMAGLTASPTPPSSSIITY

[2] = target: Protein-tyrosine kinase 2-beta (Homo sapiens) (UniProt Q14289); assay: Selectivity interaction (KinomeScan (DiscoverX)) EUB0000045b PTK2B
[3] = target: T2, Homeodomain-interacting protein kinase 1 (Homo sapiens, UniProt Q86Z02); assay: Selectivity interaction (KinomeScan (DiscoverX)) EUB0000045b HIPK1
[4] = target: RAC-beta serine/threonine-protein kinase (Homo sapiens) (UniProt P31751); assay: Selectivity interaction (Millipore kinase profiler) EUB0000124b AKT2; settings: at 10 µM
[5] = target: T3, Serine/threonine-protein kinase TBK1 (Homo sapiens) (UniProt Q9UHD2); assay: Selectivity interaction (SelectScreen profiling (Invitrogen)) EUB0000607a TBK1; settings: at 2 µM
T3 sequence (whole entry): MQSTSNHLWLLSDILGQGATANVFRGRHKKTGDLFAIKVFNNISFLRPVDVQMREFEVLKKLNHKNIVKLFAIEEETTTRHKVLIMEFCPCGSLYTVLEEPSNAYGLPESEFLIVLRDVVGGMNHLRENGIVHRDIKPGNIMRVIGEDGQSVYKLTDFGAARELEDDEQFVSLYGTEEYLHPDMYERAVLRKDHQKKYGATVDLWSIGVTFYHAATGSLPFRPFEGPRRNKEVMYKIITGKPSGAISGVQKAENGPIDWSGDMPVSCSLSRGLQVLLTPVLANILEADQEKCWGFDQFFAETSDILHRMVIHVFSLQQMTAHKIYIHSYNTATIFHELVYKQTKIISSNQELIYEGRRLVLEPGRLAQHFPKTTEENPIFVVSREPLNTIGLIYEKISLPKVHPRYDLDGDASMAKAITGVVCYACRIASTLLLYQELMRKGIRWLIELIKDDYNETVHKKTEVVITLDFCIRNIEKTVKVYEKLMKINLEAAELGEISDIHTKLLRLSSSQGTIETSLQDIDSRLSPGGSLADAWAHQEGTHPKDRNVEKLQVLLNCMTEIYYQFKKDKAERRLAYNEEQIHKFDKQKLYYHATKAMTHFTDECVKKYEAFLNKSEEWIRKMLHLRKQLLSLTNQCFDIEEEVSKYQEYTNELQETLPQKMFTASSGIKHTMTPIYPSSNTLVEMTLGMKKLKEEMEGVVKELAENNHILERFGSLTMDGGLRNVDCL

[6] = target: T4, Serine/threonine-protein kinase TNNI3K (Homo sapiens) (UniProt Q59H18); assay: Selectivity interaction (KinomeScan (DiscoverX)) EUB0000607a TNNI3K; settings: at 10 µM
T4 sequence (whole entry): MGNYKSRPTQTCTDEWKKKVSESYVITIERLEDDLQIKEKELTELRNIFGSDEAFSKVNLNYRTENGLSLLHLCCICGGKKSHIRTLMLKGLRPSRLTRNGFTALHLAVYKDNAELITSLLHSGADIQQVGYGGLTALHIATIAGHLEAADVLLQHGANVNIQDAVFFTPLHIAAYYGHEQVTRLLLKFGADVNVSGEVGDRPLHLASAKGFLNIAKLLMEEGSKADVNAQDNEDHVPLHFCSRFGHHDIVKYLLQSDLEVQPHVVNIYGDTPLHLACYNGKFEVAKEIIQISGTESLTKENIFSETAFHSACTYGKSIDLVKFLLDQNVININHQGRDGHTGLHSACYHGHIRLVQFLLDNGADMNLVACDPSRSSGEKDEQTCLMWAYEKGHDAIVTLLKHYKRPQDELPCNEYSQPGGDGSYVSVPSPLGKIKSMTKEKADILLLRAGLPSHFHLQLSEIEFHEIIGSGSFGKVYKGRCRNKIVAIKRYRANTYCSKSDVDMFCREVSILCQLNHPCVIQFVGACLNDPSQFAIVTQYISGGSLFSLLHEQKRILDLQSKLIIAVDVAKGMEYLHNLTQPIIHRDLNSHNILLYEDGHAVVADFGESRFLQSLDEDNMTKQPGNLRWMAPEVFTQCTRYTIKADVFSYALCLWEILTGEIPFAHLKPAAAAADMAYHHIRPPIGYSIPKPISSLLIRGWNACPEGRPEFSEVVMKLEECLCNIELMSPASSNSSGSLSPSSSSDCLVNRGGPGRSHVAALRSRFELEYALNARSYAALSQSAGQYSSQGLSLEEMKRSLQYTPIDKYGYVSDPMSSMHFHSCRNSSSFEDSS

[7] = target: Ribosomal protein S6 kinase beta-1 (Homo sapiens, UniProt P23443); assay: Selectivity interaction (ActivX KiNativ screen (kinase selectivity in THP-1 cell lysates)) EUB0000639a RPS6KB1; assay type: subcellular; settings: lysate, at 1 µM
[8] = target: Mitogen-activated protein kinase kinase kinase kinase 5 (Homo sapiens) (UniProt Q9Y4K4); settings: at 10 µM
[9] = target: T2, Homeodomain-interacting protein kinase 1; assay: Selectivity interaction (KinomeScan (DiscoverX)) EUB0000092b HIPK1; settings: at 10 µM
[10] = target: Serine/threonine-protein kinase 38 (Homo sapiens) (UniProt Q15208); assay: Selectivity interaction (Ambit KINOMEscan and KiNATiv profiling in Jurkat cells) EUB0000090b STK38; assay type: cell-based; settings: at 1 µM
Serine/threonine-protein kinase 38 (Homo sapiens), sequence (Q15208 2-465 limits assumed): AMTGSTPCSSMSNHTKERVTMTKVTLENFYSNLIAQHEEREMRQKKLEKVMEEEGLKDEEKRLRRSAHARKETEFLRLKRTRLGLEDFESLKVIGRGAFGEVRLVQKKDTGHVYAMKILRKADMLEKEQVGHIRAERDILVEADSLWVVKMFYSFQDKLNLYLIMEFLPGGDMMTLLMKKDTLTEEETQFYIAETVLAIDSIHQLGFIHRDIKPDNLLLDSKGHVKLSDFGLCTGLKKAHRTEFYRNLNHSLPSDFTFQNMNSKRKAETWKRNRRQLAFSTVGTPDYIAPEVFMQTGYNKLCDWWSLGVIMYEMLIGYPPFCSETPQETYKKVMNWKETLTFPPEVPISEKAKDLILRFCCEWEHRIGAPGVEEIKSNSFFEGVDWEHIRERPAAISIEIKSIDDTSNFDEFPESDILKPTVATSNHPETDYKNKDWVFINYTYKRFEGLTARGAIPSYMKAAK

T2 sequence (Q86Z02 whole entry, looked up): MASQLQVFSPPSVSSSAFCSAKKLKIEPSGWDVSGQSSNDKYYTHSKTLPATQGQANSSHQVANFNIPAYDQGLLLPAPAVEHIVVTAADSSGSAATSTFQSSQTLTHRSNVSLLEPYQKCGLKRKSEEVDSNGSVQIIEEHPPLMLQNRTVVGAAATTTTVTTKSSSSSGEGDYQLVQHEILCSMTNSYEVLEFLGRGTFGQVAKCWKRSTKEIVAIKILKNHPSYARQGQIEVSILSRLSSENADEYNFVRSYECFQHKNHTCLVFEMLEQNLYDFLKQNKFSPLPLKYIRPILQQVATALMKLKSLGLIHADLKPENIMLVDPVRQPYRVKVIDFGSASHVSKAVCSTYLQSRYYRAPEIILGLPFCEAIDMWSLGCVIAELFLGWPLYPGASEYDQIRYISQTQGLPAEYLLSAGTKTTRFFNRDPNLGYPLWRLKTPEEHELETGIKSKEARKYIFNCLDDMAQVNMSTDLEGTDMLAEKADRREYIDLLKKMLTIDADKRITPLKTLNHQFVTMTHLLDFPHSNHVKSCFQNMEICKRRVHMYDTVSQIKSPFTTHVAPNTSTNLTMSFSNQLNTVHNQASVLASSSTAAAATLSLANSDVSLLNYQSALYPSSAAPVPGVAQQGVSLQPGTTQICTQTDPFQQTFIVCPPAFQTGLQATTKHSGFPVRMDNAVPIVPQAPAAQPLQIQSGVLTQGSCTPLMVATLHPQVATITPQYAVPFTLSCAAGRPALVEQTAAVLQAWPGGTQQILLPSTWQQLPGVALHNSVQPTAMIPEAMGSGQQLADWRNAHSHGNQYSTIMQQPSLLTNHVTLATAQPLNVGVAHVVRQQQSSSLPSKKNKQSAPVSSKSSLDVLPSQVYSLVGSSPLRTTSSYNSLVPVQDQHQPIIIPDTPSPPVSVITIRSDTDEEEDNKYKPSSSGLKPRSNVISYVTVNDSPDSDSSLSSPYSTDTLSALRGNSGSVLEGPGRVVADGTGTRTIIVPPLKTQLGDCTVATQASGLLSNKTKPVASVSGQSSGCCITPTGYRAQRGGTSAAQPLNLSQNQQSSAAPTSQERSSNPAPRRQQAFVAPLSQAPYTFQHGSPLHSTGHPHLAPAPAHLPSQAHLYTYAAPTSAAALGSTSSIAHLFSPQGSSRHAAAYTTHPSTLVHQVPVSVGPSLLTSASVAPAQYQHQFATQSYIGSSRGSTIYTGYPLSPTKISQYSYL
Protein-tyrosine kinase 2-beta (Homo sapiens), sequence (Q14289 whole entry, looked up): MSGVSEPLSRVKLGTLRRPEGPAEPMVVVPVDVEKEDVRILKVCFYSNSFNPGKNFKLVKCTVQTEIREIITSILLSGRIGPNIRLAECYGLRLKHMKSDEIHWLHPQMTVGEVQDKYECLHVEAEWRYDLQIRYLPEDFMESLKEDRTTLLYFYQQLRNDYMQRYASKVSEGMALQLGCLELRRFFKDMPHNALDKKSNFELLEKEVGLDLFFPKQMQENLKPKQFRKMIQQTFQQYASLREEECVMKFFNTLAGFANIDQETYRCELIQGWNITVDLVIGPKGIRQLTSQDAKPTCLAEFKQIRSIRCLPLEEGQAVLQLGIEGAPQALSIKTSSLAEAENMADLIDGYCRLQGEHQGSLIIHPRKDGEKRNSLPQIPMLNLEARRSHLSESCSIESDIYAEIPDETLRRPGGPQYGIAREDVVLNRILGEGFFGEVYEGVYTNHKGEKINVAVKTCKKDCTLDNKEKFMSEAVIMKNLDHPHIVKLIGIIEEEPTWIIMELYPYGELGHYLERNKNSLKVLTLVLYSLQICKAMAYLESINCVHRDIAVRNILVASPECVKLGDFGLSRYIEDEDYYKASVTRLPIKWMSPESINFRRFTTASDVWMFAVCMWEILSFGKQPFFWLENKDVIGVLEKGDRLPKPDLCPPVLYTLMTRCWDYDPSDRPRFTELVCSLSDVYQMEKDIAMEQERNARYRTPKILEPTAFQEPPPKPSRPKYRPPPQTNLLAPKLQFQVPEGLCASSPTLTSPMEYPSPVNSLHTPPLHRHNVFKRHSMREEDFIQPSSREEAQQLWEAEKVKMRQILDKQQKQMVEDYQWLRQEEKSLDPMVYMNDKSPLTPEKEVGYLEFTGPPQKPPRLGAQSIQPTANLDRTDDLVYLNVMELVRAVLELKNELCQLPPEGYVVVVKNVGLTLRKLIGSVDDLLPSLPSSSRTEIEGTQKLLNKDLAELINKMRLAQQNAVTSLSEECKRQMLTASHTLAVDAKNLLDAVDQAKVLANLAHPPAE
Mitogen-activated protein kinase kinase kinase kinase 5 (Homo sapiens), sequence (Q9Y4K4 whole entry, looked up): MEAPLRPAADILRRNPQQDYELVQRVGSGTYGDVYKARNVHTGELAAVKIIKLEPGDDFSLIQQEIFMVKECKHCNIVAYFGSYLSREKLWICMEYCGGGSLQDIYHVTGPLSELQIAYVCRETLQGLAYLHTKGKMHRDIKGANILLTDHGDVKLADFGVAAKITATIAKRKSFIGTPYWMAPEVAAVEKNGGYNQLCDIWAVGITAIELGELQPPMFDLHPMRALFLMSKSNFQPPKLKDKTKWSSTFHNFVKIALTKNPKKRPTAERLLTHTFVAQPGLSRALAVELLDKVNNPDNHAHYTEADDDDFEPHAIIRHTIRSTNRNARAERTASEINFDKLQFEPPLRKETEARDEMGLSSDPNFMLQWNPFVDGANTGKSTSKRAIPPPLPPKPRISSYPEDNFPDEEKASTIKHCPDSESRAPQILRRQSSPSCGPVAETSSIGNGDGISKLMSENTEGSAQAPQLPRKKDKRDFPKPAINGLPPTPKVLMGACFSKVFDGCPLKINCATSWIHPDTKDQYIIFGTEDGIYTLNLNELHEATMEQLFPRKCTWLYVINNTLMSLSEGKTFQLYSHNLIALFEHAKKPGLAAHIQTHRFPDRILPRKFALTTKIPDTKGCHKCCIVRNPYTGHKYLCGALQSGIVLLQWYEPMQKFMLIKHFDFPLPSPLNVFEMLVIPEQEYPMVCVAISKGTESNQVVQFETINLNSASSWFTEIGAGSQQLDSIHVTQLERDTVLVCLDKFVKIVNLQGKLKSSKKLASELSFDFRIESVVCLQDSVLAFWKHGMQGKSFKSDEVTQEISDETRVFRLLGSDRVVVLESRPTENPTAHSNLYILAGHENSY
Ribosomal protein S6 kinase beta-1, sequence (P23443 whole entry, looked up): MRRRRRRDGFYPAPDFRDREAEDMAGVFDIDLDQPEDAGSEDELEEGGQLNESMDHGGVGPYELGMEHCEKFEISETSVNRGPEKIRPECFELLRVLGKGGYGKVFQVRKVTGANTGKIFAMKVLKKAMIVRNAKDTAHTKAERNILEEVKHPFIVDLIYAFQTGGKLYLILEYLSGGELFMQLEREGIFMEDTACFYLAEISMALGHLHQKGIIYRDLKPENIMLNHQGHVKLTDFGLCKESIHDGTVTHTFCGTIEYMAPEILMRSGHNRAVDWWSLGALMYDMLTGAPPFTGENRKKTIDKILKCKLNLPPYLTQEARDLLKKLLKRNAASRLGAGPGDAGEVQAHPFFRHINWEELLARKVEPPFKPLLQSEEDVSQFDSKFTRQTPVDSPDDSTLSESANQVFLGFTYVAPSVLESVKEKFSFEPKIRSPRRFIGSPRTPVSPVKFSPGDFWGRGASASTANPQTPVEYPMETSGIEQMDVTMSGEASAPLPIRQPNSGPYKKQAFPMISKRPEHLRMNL
RAC-beta serine/threonine-protein kinase (Homo sapiens), sequence (P31751 whole entry): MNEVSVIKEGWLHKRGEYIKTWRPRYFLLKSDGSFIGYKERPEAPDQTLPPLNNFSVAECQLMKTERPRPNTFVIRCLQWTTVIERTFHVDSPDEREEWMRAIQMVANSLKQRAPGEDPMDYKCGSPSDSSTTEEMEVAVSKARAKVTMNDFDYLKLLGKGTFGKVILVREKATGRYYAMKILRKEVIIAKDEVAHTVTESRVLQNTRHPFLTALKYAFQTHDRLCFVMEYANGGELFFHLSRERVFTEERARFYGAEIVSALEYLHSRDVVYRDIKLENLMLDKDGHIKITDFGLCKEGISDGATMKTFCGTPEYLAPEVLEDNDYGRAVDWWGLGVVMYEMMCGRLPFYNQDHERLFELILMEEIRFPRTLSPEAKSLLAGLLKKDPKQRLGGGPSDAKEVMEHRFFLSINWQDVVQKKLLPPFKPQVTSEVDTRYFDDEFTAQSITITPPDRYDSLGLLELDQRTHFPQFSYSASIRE

How did the % of engagement ([1]; Selectivity number of off-targets 0.0, Selectivity number of targets 233.0, Source Knowledge https://www.sciencedirect.com/science/article/pii/S2451945619300674?via%3Dihub) turn out when `C=CC(=O)Nc1ccc(C(=O)Nc2[nH]nc3c2CN(C(=O)N[C@H](CN(C)C)c2ccccc2)C3(C)C)cc1` was run?
The % of engagement was 12.6%.

And the % of engagement [1]?
Its % of engagement is 13.2%.

`C=CC(=O)Nc1cc(-n2c(=O)ccc3cnc4ccc(-c5ccc(NS(C)(=O)=O)cc5)cc4c32)ccc1C` was tested. Which % of control ([2]; at 1 µM) did it give?
The % of control was 100%.

What about the % of control ([2]; at 10 µM) of the same molecule?
Its % of control is 92%.

What about the % of control ([3]; at 1 µM) of the same molecule?
Its % of control is 100%.

What about the % of control ([3]; at 10 µM) of the same molecule?
The % of control was 56%.

Which % of control [4] does the source give for `CC(=O)Nc1cccc(-n2c(=O)n(C3CC3)c(=O)c3c(Nc4ccc(I)cc4F)n(C)c(=O)c(C)c32)c1` here?
The % of control was 103%.

Which % of inhibition [5] does the source give for `CNC(=O)Nc1ccc(-c2nc(N3CC4CCC(C3)O4)c3cnn(C4CCC5(CC4)OCCO5)c3n2)cc1` here?
The % of inhibition was 2%.

And the % of control [6]?
The % of control was 59%.

How did the % of inhibition [7] turn out when `CC[C@@H]1[C@H](F)C(=O)N[C@@H]1COc1nccc2cc(C(N)=O)c(OC)cc12` [ZIMLOVISERTIB] was run?
The % of inhibition was -5.5%.

For `CCN(CC)CCCCNc1ncc2cc(-c3cc(OC)cc(OC)c3)c(NC(=O)NC(C)(C)C)nc2n1`, which % of control [8] is on record?
Its % of control is 100%.

Which % of control [9] does the source give for `CCC(=O)N1CCN(c2ccc(-n3c(=O)ccc4cnc5ccc(-c6cnc7ccccc7c6)cc5c43)cc2C(F)(F)F)CC1` here?
Its % of control is 63%.

How did the % of control [10] turn out when `CN(C)C/C=C/C(=O)Nc1ccc(C(=O)N2CCCC(Nc3ncc(Cl)c(-c4c[nH]c5ccccc45)n3)C2)cc1` (stereo not drawn) was run?
Its % of control is 100%.
